Measured values: US11351291B2, “Systems or apparatuses and methods for performing dialysis” (ADVITOS GMBH, priority 2016, dated 2022)

Tests used:
[1] = biological target: T1, albumin (Homo sapiens, UniProt P02768); conditions: binding to albumin; reported association constants; cited from earlier work
[2] = biological target: T1, albumin; experiment: pH dependence of binding affinity for albumin
Description: Adjusting the pH of the fluids to the acidic and/or basic range makes it possible to selectively influence the binding of different substances to the respective carrier proteins or adsorbers. […] For example, the binding of copper ions to albumin can be weakened in this way so that free, dissolved copper ions in the following filter can be removed by dialysis, filtration, diafiltration, centrifugation, a field, or sorting by weight difference. Analogously, the pH of the fluid can be adjusted to the basic range so that the toxins liberated in the alkaline range can then be eliminated from the fluid by dialysis, filtration or diafiltration. […] A pH range of 8-13 is often preferred.
Devices for adjusting the pH include especially devices for adding acid or base, for example metering pumps. Appropriate acids or bases arc aqueous solutions of biologically compatible acids or bases. It is generally preferable to use acids or bases whose conjugate bases or acids are ions that occur naturally in the human organism. Examples of acids which can be used are hydrochloric acid, sulfuric acid or acetic acid, hydrochloric acid being preferred. Examples of bases which can be used are sodium hydroxide solution or potassium hydroxide solution, sodium hydroxide solution being preferred. […]

T1 sequence (P02768 25-609): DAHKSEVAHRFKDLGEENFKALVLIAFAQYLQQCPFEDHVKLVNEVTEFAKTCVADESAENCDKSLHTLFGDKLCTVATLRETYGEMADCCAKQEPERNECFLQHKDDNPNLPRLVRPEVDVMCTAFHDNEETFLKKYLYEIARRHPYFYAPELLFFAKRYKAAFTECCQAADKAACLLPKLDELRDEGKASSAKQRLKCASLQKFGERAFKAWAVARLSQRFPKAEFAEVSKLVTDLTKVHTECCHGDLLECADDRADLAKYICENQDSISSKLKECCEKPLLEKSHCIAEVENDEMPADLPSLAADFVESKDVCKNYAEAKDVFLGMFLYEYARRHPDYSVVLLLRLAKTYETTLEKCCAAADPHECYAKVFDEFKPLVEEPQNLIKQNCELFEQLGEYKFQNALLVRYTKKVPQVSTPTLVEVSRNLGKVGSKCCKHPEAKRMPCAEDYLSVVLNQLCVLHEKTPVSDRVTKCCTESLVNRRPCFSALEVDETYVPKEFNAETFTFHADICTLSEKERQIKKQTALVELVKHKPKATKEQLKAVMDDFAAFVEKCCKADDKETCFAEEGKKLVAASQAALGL

Compound | Association constant, KA [1] [M⁻¹] | binding affinity for albumin ([2]; pH above about 3) | binding affinity for albumin ([2]; pH range around 2)
CCCCC[C@H](O)/C=C/[C@H]1[C@H](O)CC(=O)[C@@H]1CCCCCCC(=O)O [Eicosanoids (PGE1), PGE1] | 70000 | – | –
[Ca+2] [Calcium] | 1510 | – | –
C[C@]12CCC(=O)C=C1CC[C@@H]1[C@@H]2[C@@H](O)C[C@@]2(C)[C@H]1CC[C@]2(O)C(=O)CO [Cortisol] | 5000 | – | –
Cl [Chloride] | 720 | – | –
C[C@]12CC[C@H]3[C@@H](CCC4=CC(=O)CC[C@@]43C)[C@@H]1CC[C@@H]2O [Testosterone] | 24000 | – | –
N[C@@H](Cc1c[nH]c2ccccc12)C(=O)O [L-tryptophan] | 10000 | – | –
t-25-(OH)2—Vitamin D3 | 50000 | – | –
CC(=O)[C@H]1CC[C@H]2[C@@H]3CCC4=CC(=O)CC[C@]4(C)[C@H]3CC[C@]12C [Progesterone] | 360000 | – | –
Copper(II) | 1.5e+16 | particularly high binding affinity | significantly lowered
C=CC1=C(C)c2cc3[n-]c(cc4[n-]c(cc5nc(cc1n2)C(C)=C5C=C)c(C)c4CCC(=O)O)c(CCC(=O)O)c3C.O.[Fe+2] [Hematin] | 1.1e+08 | – | –
[Zn+2] [Zinc(II)] | 3.4e+07 | – | –
C[C@]12CCC(=O)C=C1CC[C@@H]1[C@@H]2[C@@H](O)C[C@]2(C=O)[C@@H](C(=O)CO)CC[C@@H]12 [Aldosterone] | 3200 | – | –
C=C1CC[C@H](O)C/C1=C/C=C1\CCC[C@]2(C)[C@@H]([C@H](C)CCCC(C)(C)O)CC[C@@H]12 [25,OH—VitaminD3] | 600000 | – | –
C/C1=C2N=C(/C=C3N=C(/C(C)=C4\[N-]C(C(CC(N)=O)C4(C)CCC(=O)NCC(C)OP(=O)([O-])OC4C(CO)OC(n5cnc6cc(C)c(C)cc65)C4O)C4(C)N=C1C(CCC(N)=O)C4(C)CC(N)=O)C(CCC(N)=O)C\3(C)C)C(CCC(N)=O)C/2(C)CC(N)=O.O.[Co+3].[OH-] (centres unmarked) [Aquocobalamin] | 2e+07 | – | –
[Mg+2] [Magnesium] | 100 | – | –
